Experimental data reported in patent US11530210B2, “Substituted heteroaromatic pyrazolo-pyridines and their use as GLUN2B receptor modulators” (JANSSEN PHARMACEUTICA NV, priority 2019, dated 2022).
Counter-ions that a name gives are not always drawn.

Target: T1, human GluN1/GluN2B NMDA receptors (Homo sapiens, UniProt Q13224)
T1 construct: expressed in transfected cells
Assay: Calcium flux (FLIPR) assay on cloned human NR1/GluN2B ion channels expressed in mammalian cells (standard and HTS variants)
Assay type: cell-based
Conditions: cells expressing human GluN1/GluN2B, glutamate and glycine co-agonists
Description: Effects of Test Articles on Cloned Human NR1/GuN2B Ion Channels Expressed in Mammalian Cells
NMDA receptors are ion channels that are highly permeable to Ca^2+ ions, rendering it possible to monitor NMDA receptor function using cell-based calcium flux assay. In this assay, co-agonists glutamate and glycine are added to cells heterologously expressing human GluN1/GluN2B NMDA receptors to initiate cellular Ca^2+ influx. The time course of the changes in intracellular calcium is measured using a fluorescent dye and a FLIPR (Fluorometric Imaging Plate Reader) device.
Twenty-four hours before measurements, the expression of the NMDA receptors in the stable cell line is induced with Tet-On inducible system in the presence of a non-selective NMDA receptor blocker. On the day of the experiment, cell culture media is carefully washed, and the cells are loaded with Calcium 5 Dye Kit (Molecular Devices) in dye loading buffer containing 137 mM NaCl, 4 mM KCl, 2 mM CaCl2, 0.5 mM MgCl2 (standard assay) or 1.5 mM MgCl2 (HTS assay), 10 mM HEPES and 5 mM D-glucose; pH 7.4. After 1 h incubation at the room temperature, the dye is washed away with the assay buffer (137 mM NaCl (standard assay) or 150 mM (HTS assay), 4 mM KCl (standard assay) or 3 mM (HTS assay), 2 mM CaCl2), 0.01 mM EDTA, 10 mM HEPES and 5 mM D-glucose; pH 7.4) In the FLIPR TETRA reader, various concentrations of the test compounds are added to the cells for 5 min while fluorescence is monitored to detect potential agonist activity. Next, co-agonists, glutamate and glycine are added for another 5 minutes. The concentration of glutamate corresponding to ˜EC40 (standard assay) or EC40 (HTS assay) is used to maximize the assay's signal window and ability to detect NMDA receptor antagonists and negative allosteric modulators. A saturating concentration (10 μM) of glycine is also present in the assay. A non-selective NMDA receptor antagonist, (+)MK-801 is used as a positive control for antagonist activity. The fluorescent signal in the presence of test compounds is quantified and normalized to the signal defined by the appropriate control wells.

T1 sequence (Q13224 27-1484, other chains not shown): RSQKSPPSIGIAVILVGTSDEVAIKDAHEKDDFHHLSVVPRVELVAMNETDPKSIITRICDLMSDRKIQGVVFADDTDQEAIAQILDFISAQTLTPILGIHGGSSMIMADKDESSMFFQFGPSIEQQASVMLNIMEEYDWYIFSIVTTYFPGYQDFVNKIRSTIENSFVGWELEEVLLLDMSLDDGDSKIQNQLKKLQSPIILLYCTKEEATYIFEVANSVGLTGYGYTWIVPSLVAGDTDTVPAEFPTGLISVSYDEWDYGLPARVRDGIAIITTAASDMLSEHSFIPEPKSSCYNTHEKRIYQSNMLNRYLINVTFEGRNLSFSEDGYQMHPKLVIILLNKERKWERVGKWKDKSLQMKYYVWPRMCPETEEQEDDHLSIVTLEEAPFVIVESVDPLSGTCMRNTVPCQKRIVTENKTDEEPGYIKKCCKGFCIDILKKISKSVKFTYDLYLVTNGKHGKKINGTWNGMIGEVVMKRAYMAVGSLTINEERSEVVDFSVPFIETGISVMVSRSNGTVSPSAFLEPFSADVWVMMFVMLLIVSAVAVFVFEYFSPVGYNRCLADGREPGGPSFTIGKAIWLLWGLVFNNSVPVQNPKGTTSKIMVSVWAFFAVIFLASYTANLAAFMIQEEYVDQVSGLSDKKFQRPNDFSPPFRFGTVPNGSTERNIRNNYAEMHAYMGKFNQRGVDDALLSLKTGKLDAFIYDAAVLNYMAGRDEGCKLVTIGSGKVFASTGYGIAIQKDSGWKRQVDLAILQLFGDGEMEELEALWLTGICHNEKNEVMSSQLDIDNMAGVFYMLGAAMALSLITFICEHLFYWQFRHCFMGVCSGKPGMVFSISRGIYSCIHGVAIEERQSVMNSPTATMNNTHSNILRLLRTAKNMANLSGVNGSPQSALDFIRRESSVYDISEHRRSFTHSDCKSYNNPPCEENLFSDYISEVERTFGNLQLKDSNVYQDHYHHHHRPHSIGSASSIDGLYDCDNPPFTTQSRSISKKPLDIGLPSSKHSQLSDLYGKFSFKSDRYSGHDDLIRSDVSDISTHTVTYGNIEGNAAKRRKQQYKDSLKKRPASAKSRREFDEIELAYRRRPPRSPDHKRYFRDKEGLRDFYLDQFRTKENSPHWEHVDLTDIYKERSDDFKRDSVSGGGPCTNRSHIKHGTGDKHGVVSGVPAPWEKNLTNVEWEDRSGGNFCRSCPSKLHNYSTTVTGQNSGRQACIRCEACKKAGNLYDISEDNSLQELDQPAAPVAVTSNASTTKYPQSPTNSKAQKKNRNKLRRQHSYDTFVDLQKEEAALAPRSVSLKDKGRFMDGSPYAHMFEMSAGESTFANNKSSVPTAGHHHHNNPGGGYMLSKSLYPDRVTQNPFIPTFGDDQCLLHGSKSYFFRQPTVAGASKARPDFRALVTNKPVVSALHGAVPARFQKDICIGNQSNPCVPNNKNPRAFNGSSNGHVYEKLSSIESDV

**Q.** How did the IC50 turn out when `Cc1cc(-c2cnc3cnn(Cc4cccnc4)c3c2)ccc1F` [Example 177, 6-(4-Fluoro-3-methyl-phenyl)-1-(3-pyridylmethyl)pyrazolo[4,3-b]pyridine] was run?
**A.** 23 nM

**Q.** For `Cc1nnc(Cn2ncc3ncc(-c4ccc(Cl)c(OC(F)F)c4)cc32)s1` [Example 135, 2-[[6-[4-Chloro-3-(difluoromethoxy)phenyl]pyrazolo[4,3-b]pyridin-1-yl]methyl]-5-methyl-1,3,4-thiadiazole], which IC50 is on record?
**A.** 133 nM

**Q.** How did the IC50 turn out when `Cc1ccncc1Cn1ncc2ncc(-c3cc(F)cc(F)c3)cc21` [Example 184, 6-(3,5-Difluorophenyl)-1-[(4-methyl-3-pyridyl)methyl]pyrazolo[4,3-b]pyridine trifluoroacetate salt] was run?
**A.** 68 nM

**Q.** `Cc1ncc(Cn2ncc3ncc(-c4ccc(F)c(C)c4)cc32)o1` [Example 48, 5-[[6-(4-Fluoro-3-methyl-phenyl)pyrazolo[4,3-b]pyridin-1-yl]methyl]-2-methyl-oxazole] was tested. Which IC50 did it give?
**A.** 113 nM

**Q.** Which IC50 does the source give for `Fc1ccc(Cn2ncc3ncc(-c4ccc(C(F)(F)F)s4)cc32)cn1` [Example 143, 1-((6-Fluoropyridin-3-yl)methyl)-6-(5-(trifluoromethyl)thiophen-2-yl)-1H-pyrazolo[4,3-b]pyridine] here?
**A.** 132 nM

**Q.** With `Cc1cc(Cn2ncc3ncc(-c4ccc(F)c(C(C)(F)F)c4)cc32)no1` [Example 58, 3-[[6-[3-(1,1-Difluoroethyl)-4-fluoro-phenyl]pyrazolo[4,3-b]pyridin-1-yl]methyl]-5-methyl-isoxazole] as the compound, how does the IC50 read?
**A.** 158 nM

**Q.** `CCc1nnc(Cn2ncc3ncc(-c4ccc(F)c(C(F)F)c4)cc32)n1C` [Example 76, 6-[3-(Difluoromethyl)-4-fluoro-phenyl]-1-[(5-ethyl-4-methyl-1,2,4-triazol-3-yl)methyl]pyrazolo[4,3-b]pyridine] was tested. Which IC50 did it give?
**A.** 3830 nM

**Q.** With `Fc1ccc(-c2cnc3cnn(Cc4ccncn4)c3c2)cc1C(F)F` [Example 270, 6-[3-(Difluoromethyl)-4-fluoro-phenyl]-1-(pyrimidin-4-ylmethyl)pyrazolo[4,3-b]pyridine] as the compound, how does the IC50 read?
**A.** 176 nM

**Q.** Which IC50 does the source give for `Cc1nnc(Cn2ncc3ncc(-c4ccc(Cl)c(C(F)F)c4)cc32)s1` [Example 131, 2-[[6-[4-Chloro-3-(difluoromethyl)phenyl]pyrazolo[4,3-b]pyridin-1-yl]methyl]-5-methyl-1,3,4-thiadiazole] here?
**A.** 57 nM

**Q.** For `Cc1noc(Cn2ncc3ncc(-c4cc(F)cc(C(F)(F)F)c4)cc32)n1` [Example 108, 5-[[6-[3-Fluoro-5-(trifluoromethyl)phenyl]pyrazolo[4,3-b]pyridin-1-yl]methyl]-3-methyl-1,2,4-oxadiazole], which IC50 is on record?
**A.** 815 nM

**Q.** Which IC50 does the source give for `Fc1cncc(Cn2ncc3ncc(-c4ccccc4F)cc32)c1` [Example 153, 6-(2-Fluorophenyl)-1-[(5-fluoro-3-pyridyl)methyl]pyrazolo[4,3-b]pyridine] here?
**A.** 720 nM

**Q.** Which IC50 does the source give for `CC(F)(F)c1cccc(-c2cnc3cnn(Cc4cncc(F)c4)c3c2)c1` [Example 161, 6-[3-(1,1-Difluoroethyl)phenyl]-1-[(5-fluoro-3-pyridyl)methyl]pyrazolo[4,3-b]pyridine] here?
**A.** 40 nM

**Q.** `Fc1ccc(-c2cnc3cnn(Cc4cncc(OC(F)F)c4)c3c2)cc1C(F)F` [Example 210, 1-[[5-(Difluoromethoxy)-3-pyridyl]methyl]-6-[3-(difluoromethyl)-4-fluoro-phenyl]pyrazolo[4,3-b]pyridine] was tested. Which IC50 did it give?
**A.** 110 nM

**Q.** Which IC50 does the source give for `Fc1cncc(Cn2ncc3ncc(-c4cccc(C(F)(F)F)c4)cc32)c1` [Example 171, 1-[(5-Fluoro-3-pyridyl)methyl]-6-[3-(trifluoromethyl)phenyl]pyrazolo[4,3-b]pyridine] here?
**A.** 212 nM

**Q.** Which IC50 does the source give for `CC(F)(F)c1cccc(-c2cnc3cnn(Cc4cn[nH]c4)c3c2)c1` [Example 35, 6-[3-(1,1-Difluoroethyl)phenyl]-1-(1H-pyrazol-4-ylmethyl)pyrazolo[4,3-b]pyridine] here?
**A.** 648 nM

**Q.** How did the IC50 turn out when `N#Cc1cccc(Cn2ncc3ncc(-c4ccc(F)c(C(F)F)c4)cc32)c1` [Example 26, 3-[[6-[3-(Difluoromethyl)-4-fluoro-phenyl]pyrazolo[4,3-b]pyridin-1-yl]methyl]benzonitrile] was run?
**A.** 62 nM

**Q.** With `COc1nccc(Cn2ncc3ncc(-c4ccc(F)c(OC(F)F)c4)cc32)n1` [Example 291, 6-[3-(Difluoromethoxy)-4-fluoro-phenyl]-1-[(2-methoxypyrimidin-4-yl)methyl]pyrazolo[4,3-b]pyridine] as the compound, how does the IC50 read?
**A.** 938 nM

**Q.** For `Fc1cc(-c2cnc3cnn(Cc4cccnn4)c3c2)cc(F)c1F` [Example 268, 1-(Pyridazin-3-ylmethyl)-6-(3,4,5-trifluorophenyl)pyrazolo[4,3-b]pyridine], which IC50 is on record?
**A.** 673 nM

**Q.** Which IC50 does the source give for `Fc1cc(F)cc(Cn2ncc3ncc(-c4ccc(F)c(OC(F)F)c4)cc32)c1` [Example 30, 6-[3-(Difluoromethoxy)-4-fluoro-phenyl]-1-[(3,5-difluorophenyl)methyl]pyrazolo[4,3-b]pyridine] here?
**A.** 536 nM

**Q.** Which IC50 does the source give for `N#Cc1cncc(Cn2ncc3ncc(-c4cccc(C(F)F)c4F)cc32)c1` [Example 212, 5-[[6-[3-(Difluoromethyl)-2-fluoro-phenyl]pyrazolo[4,3-b]pyridin-1-yl]methyl]pyridine-3-carbonitrile] here?
**A.** 67 nM

**Q.** Which IC50 does the source give for `Cc1nn(Cc2cccnc2)c2cc(-c3ccc(F)c(C(F)F)c3)cnc12` [Example 199, 6-[3-(Difluoromethyl)-4-fluoro-phenyl]-3-methyl-1-(3-pyridylmethyl)pyrazolo[4,3-b]pyridine] here?
**A.** 34 nM

**Q.** With `Cc1csc(-c2cnc3cnn(Cc4cccnc4)c3c2)c1` [Example 137, 6-(4-Methyl-2-thienyl)-1-(3-pyridylmethyl)pyrazolo[4,3-b]pyridine] as the compound, how does the IC50 read?
**A.** 116 nM

**Q.** With `FC(F)(F)c1cccc(-c2cnc3cnn(Cc4cncnc4)c3c2)c1` [Example 276, 1-(Pyrimidin-5-ylmethyl)-6-[3-(trifluoromethyl)phenyl]pyrazolo[4,3-b]pyridine] as the compound, how does the IC50 read?
**A.** 145 nM

**Q.** How did the IC50 turn out when `Cc1ncccc1Cn1ncc2ncc(-c3ccc(F)c(F)c3)cc21` [Example 188, 6-(3,4-Difluorophenyl)-1-[(2-methyl-3-pyridyl)methyl]pyrazolo[4,3-b]pyridine] was run?
**A.** 3620 nM

**Q.** How did the IC50 turn out when `Cc1nnc(Cn2ncc3ncc(-c4ccc(Cl)c(OC(F)F)c4)cc32)o1` [Example 116, 2-[[6-[4-Chloro-3-(difluoromethoxy)phenyl]pyrazolo[4,3-b]pyridin-1-yl]methyl]-5-methyl-1,3,4-oxadiazole] was run?
**A.** 283 nM

**Q.** `Cc1c(F)ccc(-c2cnc3cnn(Cc4ccc(F)nc4)c3c2)c1F` [Example 248, 6-(2,4-Difluoro-3-methyl-phenyl)-1-[(6-fluoro-3-pyridyl)methyl]pyrazolo[4,3-b]pyridine] was tested. Which IC50 did it give?
**A.** 62 nM

**Q.** For `Fc1ccc(Cn2ncc3ncc(-c4ccc(F)c(C(F)F)c4)cc32)s1` [Example 33, 6-(3-(Difluoromethyl)-4-fluorophenyl)-1-((5-fluorothiophen-2-yl)methyl)-1H-pyrazolo[4,3-b]pyridine], which IC50 is on record?
**A.** 1030 nM

**Q.** How did the IC50 turn out when `COc1cccc(-c2cnc3cnn(Cc4ccccn4)c3c2)c1` [Example 154, 6-(3-Methoxyphenyl)-1-(2-pyridylmethyl)pyrazolo[4,3-b]pyridine] was run?
**A.** 7370 nM

**Q.** For `Fc1cccc(Cn2ncc3ncc(-c4cccc(C(F)(F)F)c4)cc32)c1` [Example 22, 1-[(3-Fluorophenyl)methyl]-6-[3-(trifluoromethyl)phenyl]pyrazolo[4,3-b]pyridine hydrochloride salt], which IC50 is on record?
**A.** 1820 nM
